{"source": "patent US8741932B2", "about": "“Imidazopyridine derivatives” (Piramal Enterprises Limited, priority 2009, dated 2014)", "key": {"[1]": {"tested_on": "DSS-induced colitis in C57BL/6J mice", "test": "Ulcerative colitis, DSS-induced colitis in mice", "assay_type": "in vivo", "details": "3% DSS, 10 mg/kg orally daily, day 6 to day 10", "method": "The efficacy of compounds of the present invention on the gross pathology of colitis and proinflammatory mediators was determined by following the method described in Am. J. Physiol. Gastrointest. Liver Physiol.\nC57BL/6J mice (6 weeks of age, weighing 18-22 gms) were obtained from Jackson Laboratories (Bar Harbor, Me.) and housed in individually ventilated cage (IVC) system. Colitis was induced in mice by replacing drinking water with 3% (w/v) DSS (molecular weight 35-50 kDa, ICN Biomedicals, Aurora, Ohio, US) in water. This solution was made available to the experimental animals ad libitum, from day 0 to day 10. A batch of six naive animals received water instead of DSS during this period.\nDSS-induction of colitis was manifested with increase in clinical disease activity index associated with weight loss and presence of blood in feces.\nThe animals were weighed every day and the record of body weights was maintained. The compound of Example 25 (10 mg/kg, prepared at a concentration of 1 mg/mL in 0.5% (w/v) CMC after mixing a drop of Tween 20) was administered orally daily to the colitis induced animals. This treatment was initiated on day 6 and continued up to day 10. During this period, DSS control animals received DSS, positive control animals received 5-aminosalicylic acid (5-ASA, 25 mg/kg, p.o.) and naïve animals received 0.5% CMC once daily.\nAt the end of DSS treatment period, mice were humanely euthanized with 15% urethane (i.p.). The whole colon (i.e., including ceacum, proximal colon and distal colon) was excised.\nThe colon was macrosopically assessed by determining • a) Rectal bleeding/blood in faeces • b) Stool consistency • c) Blood in colon • d) Colon length • e) % weight loss • f) Blood hemoglobin concentration\nDisease Activity Index: various features were scored as delineated in the following table.\nDisease activity index is the sum of scores of all features."}, "[2]": {"tested_on": "U 87 MG", "test": "Cytotoxicity assay (propidium iodide), U 87 MG", "assay_type": "cell-based", "details": "Homo sapiens; U 87 MG (C8b, glioblastoma); 48 hours", "quoted_text": "(§1) Cells from cell lines as mentioned in the table given below were seeded at a density of 3000 cells/well in a white opaque 96-well plate. Following incubation at 37° C./5% CO2 for a period of 18-24 hours, the cells were treated with various concentrations (stock solution was prepared in DMSO and subsequent dilutions were made in media as per ATCC guidelines) of the representative compounds of present invention (refer table 3) for a period of 48 hours. At the end of treatment, the spent culture medium was discarded, the cells were washed with 1×PBS and 200 μl of 7 μg/ml propidium iodide was added to each well. The plates were frozen at −70° C. for at least 24 hours. For analysis, the plates were brought to RT, allowed to thaw and were read in PolarStar fluorimeter with the fluorescence setting. The percentage of viable cells in the non treated set of wells was considered to be 100 and the percentage viability following treatment was calculated accordingly. IC50 values were calculated from graphs plotted using these percentages."}, "[3]": {"tested_on": "G361", "test": "Cytotoxicity assay (propidium iodide), G361", "assay_type": "cell-based", "details": "G-361; G361 (C9a, human melanoma); 48 hours", "quoted_text": "as §1"}}}
{"smiles": "Cc1ccc([N+](=O)[O-])cc1S(=O)(=O)N(C)N=Cc1cnc2ccc(-c3cccnc3)cn12", "note": "[Example 25]", "values": [{"measurement": "DSS-induced body weight loss", "setting": "[1]", "result": "attenuated"}, {"measurement": "DSS-induced colon bleeding", "setting": "[1]", "result": "attenuated"}, {"measurement": "DSS-induced decrease in hematocrit", "setting": "[1]", "result": "inhibited"}, {"measurement": "DSS-induced disease activity index", "setting": "[1]", "result": "reduced"}, {"measurement": "DSS-induced shortening of colon", "setting": "[1]", "result": "inhibited"}, {"measurement": "rectal bleeding index", "setting": "[1]", "result": "improved"}]}
{"smiles": "Cc1ccc(F)cc1S(=O)(=O)N(C)N=Cc1cnc2ccc(-c3cccnc3)cn12", "note": "[Example 21, 5-Fluoro-N, 2-dimethyl-N′-((6-(pyridine-3-yl)imidazo[1,2-a]pyridine-3-yl)methylene) benzenesulfonohydrazide]", "values": [{"measurement": "IC50", "setting": "[2]", "result": "10 to 5000", "unit": "nM"}, {"measurement": "IC50", "setting": "[3]", "result": "10 to 5000", "unit": "nM"}]}
